Laboratory results: ChEMBL document CHEMBL1201862, “PubChem BioAssay data set” (2004)
Where a name gives a salt, the structure may show the parent alone. Calls of active or inactive are those of the source.

How the values were obtained:
[1] = biological target: G-protein coupled receptor 183 (Homo sapiens, UniProt P32249); experiment: SAR confirmation of small molecule antagonists of the EBI2 receptor via a luminescent beta-arrestin assa.; format: functional
[2] = Potency on glucagon-like peptide 1 release, dose-response in NCI-H716 cell line, half maximal inhibitory concentration (AID 1117344); format: functional, cell-based
[3] = glucagon-like peptide-1 release potency in STC-1, concentration-response, half-maximal inhibitory concentration in the STC-1 line (AID 1117345); format: functional, cell-based
[4] = cells; format: functional, cell-based; settings: INS-1E
[5] = IC50 of insulin release inhibition, rat insulinoma INS-1E line, 5 mM glucose, cell-based (AID 1117331); format: functional

Sequence of G-protein coupled receptor 183 (P32249 whole entry): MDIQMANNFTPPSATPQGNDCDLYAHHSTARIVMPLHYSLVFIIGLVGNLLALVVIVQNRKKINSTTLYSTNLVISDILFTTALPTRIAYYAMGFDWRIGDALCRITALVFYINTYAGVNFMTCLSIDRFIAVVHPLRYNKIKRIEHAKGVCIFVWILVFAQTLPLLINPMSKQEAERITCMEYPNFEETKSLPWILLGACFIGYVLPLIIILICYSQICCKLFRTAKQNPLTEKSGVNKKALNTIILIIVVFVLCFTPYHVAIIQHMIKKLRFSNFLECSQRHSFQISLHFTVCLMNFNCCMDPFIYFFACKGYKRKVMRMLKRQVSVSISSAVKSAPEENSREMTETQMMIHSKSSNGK

Row | IC50 [1] | Structure (SMILES) | IC50 [4] | IC50 [5] | other results
1 | 0.00261 µM (active) | O=C(/C=C/c1ccc(Br)cc1)N1CCN(Cc2cccc(F)c2)CC1 |  |  | 
2 | 0.0216 µM (active) | O=C(/C=C/c1ccccc1)N1CCN(Cc2ccc(F)cc2)CC1 |  |  | 
3 |  | CC(=O)NO [ACETOHYDROXAMIC ACID] |  |  | IC50 [2]: > 40 µM (inactive); IC50 [3]: > 40 µM (inactive)
4 |  | CN1CCCN(C(c2ccccc2)c2ccc(Cl)cc2)CC1 (stereo not drawn) [HOMOCHLORCYCLIZINE] | > 33.3 µM (inactive) | > 3.7 µM (inactive) | 
5 |  | CN(C)C/C=C(/c1ccc(Br)cc1)c1cccnc1 [ZIMELDINE HYDROCHLORIDE] | > 33.3 µM (inactive) | 8.36 µM (inactive) | 
